The values that follow come from the Deep4Chem optical property database.

Structures are written as SMILES.

This data set in a line: solvent given as SMILES.

As to `Cc1c2c(c(C)c3ccccc13)C1=C2C=CC2Nc3ccccc3NC12` (configuration not stated), the absorption maximum (in ClC(Cl)Cl) is listed as 437 nm.
Consider `CCCCCCCCN1C(=O)c2ccc3c4c(-c5ccc6c7ccccc7n(-c7ccccc7)c6c5)cc5c6c(cc(-c7ccc8c9ccccc9n(-c9ccccc9)c8c7)c(c7ccc(c2c37)C1=O)c64)C(=O)N(CCCCCCCC)C5=O`, for which the absorption maximum (in ClC(Cl)Cl) came out at 567 nm.
With `CC(C)c1cc(C(C)C)c(B2c3ccccc3Oc3cc(N4c5ccccc5C(C)(C)c5ccccc54)ccc32)c(C(C)C)c1`, for the setting “in Cc1ccccc1”, the absorption maximum is given as 436 nm.
Consider `O=C(c1sc(-c2ccc(-c3cc(-c4cccs4)c(C(=O)N4CCOCC4)s3)s2)cc1-c1cccs1)N1CCOCC1`, for which the absorption maximum (in ClCCl) is listed as 379 nm.
On to `O=C1c2cc(F)ccc2-c2cnccc21`, for which the absorption maximum (in CC#N) is 408.61 nm and the absorption maximum (in CCCCCC) is 408.61 nm.
Turning to `C(#Cc1ccc2ncsc2c1)c1ccc(N(c2ccccc2)c2ccccc2)cc1`, the absorption maximum (in Cc1ccccc1) was found to be 365 nm.
Under “in ClCCl”, `CCOC(=O)c1c(-c2c(Cl)c3ccccc3oc2=O)nn(-c2ccc(Br)cc2)c1C(=O)OCC` yielded an absorption maximum of 322 nm.
In turn, `CC(=C(C#Cc1ccccc1)C#Cc1ccccc1)c1ccc(C(C)=C(C#Cc2ccccc2)C#Cc2ccccc2)cc1` yielded an absorption maximum (in ClC(Cl)Cl) of 360 nm.
`c1ccc2c3c(ccc2c1)-c1c2ccccc2cc2cccc-3c12` came in with an absorption maximum (in CCCCCCC) of 449 nm.
`COC(=O)C1=C(C(=O)OC)C2(c3ccccc3-c3c(Br)cc(Br)cc32)C2(/C=C/c3ccccc3)c3cc(OC)c(OC)cc3CCN12` (configuration not stated): for the setting “in ClCCl”, the absorption maximum is reported as 328 nm.
Turning to `CC(C)[Si](C#CC1=CC2=c3cc(C#C[Si](C(C)C)(C(C)C)C(C)C)c4nc(C(F)(F)C(F)(F)C(F)(F)F)nc5c(C#C[Si](C(C)C)(C(C)C)C(C)C)cc(c3c54)C3=CC(C#C[Si](C(C)C)(C(C)C)C(C)C)=C4N=C(C(F)(F)C(F)(F)C(F)(F)F)N=C1C4C32)(C(C)C)C(C)C` (configuration not stated), the absorption maximum (in C1CCOC1) stood at 516 nm.
In turn, `CC(=O)c1cc(=O)n(C)c2cc(-c3ccc(N(C)C)cc3)sc12` yielded an absorption maximum (in CC#N) of 440 nm and an absorption maximum (in ClCCl) of 448 nm.
As to `COc1ccc2c3c(c4ccc(C(C)(C)C)cc4c2c1)=C(c1cc(OC)c(OC)c(OC)c1)C1=Nc2c(-c4cc(OC)c(OC)c(OC)c4)c4c5ccc(C(C)(C)C)cc5c5cc(OC)ccc5c4n2[B-](F)(F)[N+]=31`, the absorption maximum (in Cc1ccccc1) amounted to 797 nm.
Regarding `C[N+]1=c2ccc3c(c2C(C)(C)CC1)Oc1cc2c(cc1C=3c1ccccc1C(=O)O)C(c1ccccc1C(=O)O)=c1ccc3c(c1O2)C(C)(C)CC[N+]=3C`, the absorption maximum (in ClC(Cl)Cl) turned out to be 617 nm.
With `C(=C(c1ccccc1)c1ccccc1)c1ccc(-c2ccc(-c3nc4c5ccccc5c5ccccc5c4n3-c3cccc(-c4ccc(C=C(c5ccccc5)c5ccccc5)cc4)c3)cc2)cc1`, under “in C1CCOC1”, the absorption maximum is recorded as 340 nm.
On to `Nc1ccc2ccc3cccc4ccc1c2c34`, for which the absorption maximum turned out to be 361 nm (in CC#N), 361 nm (in CCCCOCCCC) and 357 nm (in CO).
The molecule `CCOC(=O)c1ccc(C2=Cc3cc4ccccc4cc3P2(=O)c2ccccc2)cc1` (configuration not stated) gave an absorption maximum (in ClCCl) of 390 nm.
Turning to `O=C1c2cc(-c3ccccc3)ccc2-c2ccc(-c3ccccc3)cc21`, the absorption maximum (in C1CCOC1) is on record as 337 nm.
For the molecule `COC(=O)c1ccc(C#Cc2ccccc2)cc1`, the absorption maximum was 316.6 nm (in C1CCCCC1); 311.6 nm (in CC#N); 313.8 nm (in CC(C)O); 314.8 nm (in CCCCCC); 317.3 nm (in CCCCCCCCCCCCCCCC); 317.2 nm (in CCCCCCCCCCCCCCCCCl). For the same molecule, where the note is “in CO”, the absorption maximum is 311.8 nm.
As to `CCN(CC)c1ccc2c(-c3ccc(S(=O)(=O)[O-])cc3S(=O)(=O)[O-])c3ccc(=[N+](CC)CC)cc-3oc2c1`, the absorption maximum by setting is: (in CC#N) 548 nm; (in CCO) 552 nm; (in CN(C)C=O) 552 nm; (in O) 562 nm.
`N#CC(C#N)=C(c1ccc(-n2ccc3ccccc32)cc1)c1ccc(-n2ccc3ccccc32)cc1` returned an absorption maximum (in Cc1ccccc1) of 400 nm.
As for `Nc1ccc2[nH]ncc2c1`, the absorption maximum (in C1CCCCC1) was determined as 326 nm.
As to `C(=C\c1ncc2ccccc2n1)/c1ccc(N2CCCCC2)cc1`, the absorption maximum (in ClCCl) is 385 nm.
With `CN(C)CCCN1c2ccccc2Sc2ccc(Cl)cc21`, the absorption maximum (in CC#N) is given as 312 nm, the absorption maximum (in CO) is given as 311 nm and the absorption maximum (in O) is 307 nm.
`CC(C)[Si](C#Cc1c2cc3ccccc3cc2c(C#C[Si](C)(C)C)c2cc3ccccc3cc12)(C(C)C)C(C)C` came in with an absorption maximum (in ClCCl) of 642 nm.
Take `COc1ccc(-c2c(-c3ccc(OC)cc3)c3c4c(cccc4c2-c2ccccc2)C(=O)c2ccccc2-3)cc1`: the absorption maximum is listed as 402 nm (in CC#N) and 407 nm (in CO).
In the case of `COc1cc2oc(=O)c3c4ccc(N(C)C)cc4c4ccc5cccc6c(c1)c2c3c4c56`, the absorption maximum (in C1CCOC1) was 480 nm.
The molecule `N#C/C(=C\c1ccc(Cl)cc1)c1nc(-c2ccccc2)c(-c2ccccc2)s1` gave an absorption maximum (in CC#N) of 365 nm.
For the molecule `COC(=O)C(NC(=O)OC(C)(C)C)c1ccc2oc(-c3cc(OC)ccc3OC)nc2c1` (configuration not stated), the absorption maximum by setting is: (in CC1CCCCC1) 332 nm; (in CC#N) 333 nm; (in CO) 337 nm.
Regarding `CC(C)c1cc(C(C)C)c(B2c3cc(-n4c5ccc(C(C)(C)C)cc5c5cc(C(C)(C)C)ccc54)ccc3N(c3ccccc3)c3ccc(-n4c5ccc(C(C)(C)C)cc5c5cc(C(C)(C)C)ccc54)cc32)c(C(C)C)c1`, the absorption maximum (in C1CCCCC1) was determined as 410.54 nm.
Take `CC1(C)c2cccc(-c3nc(-c4ccccc4)nc(-c4ccccc4)n3)c2Oc2c(-n3c4ccccc4c4ccccc43)cccc21`: the absorption maximum (in Cc1ccccc1) was determined as 341 nm.
The molecule `N#Cc1c(C#N)c2cc(Br)ccc2c2ccc(Br)cc12` showed an absorption maximum (in ClC(Cl)Cl) of 350 nm.
Take `CN(C)c1ccc2c3c(c(=O)oc2c1)C=c1cc2c(cc1O3)=[N+](CCC(=O)O)CCC2`: the absorption maximum came to 593 nm (in CC#N), 591 nm (in CO), 606 nm (in ClCCl) and 587 nm (in O).
In the case of `Cc1ccc2c(c1)c1cc(Br)ccc1n2-c1c(C#N)c(-n2c3ccc(Br)cc3c3cc(Br)ccc32)c(-n2c3ccc(Br)cc3c3cc(Br)ccc32)c(C#N)c1-n1c2ccc(Br)cc2c2cc(Br)ccc21`, where the note is “in Cc1ccccc1”, the absorption maximum is on record as 339 nm.
`CC1=CC(C)=[N+]2C1=C(C1=C3C(C)=CC(C)=[N+]3[B-](F)(F)n3c(C)cc(C)c31)c1c(C)cc(C)n1[B-]2(F)F`: the absorption maximum (in ClC(Cl)Cl) worked out at 515 nm.
Regarding `CCc1c(C)[nH]c(C2=[N+]3C(=C(C)c4c(C)c(CC)c(C)n4[B-]3(F)F)c3ccccc32)c1C`, the absorption maximum by setting is: (in C1CCOC1) 618 nm; (in CC#N) 610 nm; (in CCCCCC) 620 nm; (in CO) 613 nm; (in Cc1ccccc1) 625 nm; (in ClCCl) 619 nm.
For `CC(C)(C)c1ccc(C2=CC3=C(c4ccccc4)c4cc(-c5ccc(C(C)(C)C)cc5)c(-c5ccc(C(C)(C)C)cc5)n4[B-](F)(F)[N+]3=C2c2ccc(C(C)(C)C)cc2)cc1`, the absorption maximum amounted to 602 nm (in C1CCCCC1); 601 nm (in C1CCOC1); 590 nm (in CC#N); 605 nm (in Cc1ccccc1); 598 nm (in ClCCl).
`CCCCCCCCCCCCn1cccc1/C=C/c1ccc(/C=C/c2cccn2CCCCCCCCCCCC)cc1`: the absorption maximum (in Cc1ccccc1) was 398 nm.
`CC(C)(C)c1ccc2c(c1)c1ncncc1c1c3ccccc3sc21`: the absorption maximum (in ClCCl) is recorded as 377 nm.
As to `CCC1(CC)c2cc(C#Cc3cc(C#Cc4ccc5c(c4)C(CC)(CC)c4cc(N(c6ccccc6)c6ccccc6)ccc4-5)c4ccc5c(C#Cc6ccc7c(c6)C(CC)(CC)c6cc(N(c8ccccc8)c8ccccc8)ccc6-7)cc(C#Cc6ccc7c(c6)C(CC)(CC)c6cc(N(c8ccccc8)c8ccccc8)ccc6-7)c6ccc3c4c65)ccc2-c2ccc(N(c3ccccc3)c3ccccc3)cc21`, the absorption maximum is, setting by setting: (in C1CCCCC1) 500 nm; (in C1CCOC1) 506 nm; (in CCOC(C)=O) 502 nm; (in CN(C)C=O) 506 nm; (in Cc1ccccc1) 503 nm; (in ClC(Cl)Cl) 503 nm. Moreover, the absorption maximum (in ClCCl) is listed as 504 nm.
`CN(C)c1ccc(C#Cc2ccc(C=O)cc2)cc1`: the absorption maximum is 381.5 nm (in C1CCCCC1); 379.51 nm (in C1CCOC1); 375.01 nm (in C1COCCO1); 382 nm (in CC1CCCO1); 375.01 nm (in CC#N); 388 nm (in CC(C)=O). Further, the absorption maximum by setting is: (in CC(C)CC(C)(C)C) 383.49 nm; (in CC(C)O) 380.5 nm; (in CCCCCCCCCCCCCCCC) 383 nm; (in CCCCCCCCCCCCCCCCCl) 390 nm; (in CCOC(C)=O) 375.01 nm; (in CCOCC) 372.49 nm. Also, the absorption maximum is, setting by setting: (in CN(C)C=O) 379.51 nm; (in CO) 380.5 nm; (in CS(C)=O) 387 nm; (in Cc1ccccc1) 381.5 nm.
Take `c1ccc2c(c1)c1ccccc1c1ncncc21`: the absorption maximum (in ClCCl) was determined as 346 nm.
On to `CCCCCCCCN1c2ccc(C#Cc3ccc(OC)cc3)cc2Sc2cc(C=O)ccc21`, for which the absorption maximum runs as follows: (in C1CCOC1) 378 nm; (in CC#N) 380.01 nm; (in CCCCCC) 374 nm; (in CO) 351.11 nm; (in CS(C)=O) 383.45 nm; (in Cc1ccccc1) 383 nm. The molecule also displayed an absorption maximum (in ClC(Cl)Cl) of 382.5 nm.
For `O=c1cc2c(-c3c(O)c4cccc5ccc6oc(=O)cc3c6c54)c(O)c3cccc4ccc(o1)c2c43`, for the setting “in CC1CCCO1”, the absorption maximum came to 486 nm.
For `CCCCCOc1cc2oc(=O)c3c4ccc(N)cc4c4ccc5cccc6c(c1)c2c3c4c56`, the absorption maximum (in C1CCOC1) stood at 471 nm.
